Assays:
[1] = biological target: Glutamate receptor ionotropic, NMDA 1 (Rattus norvegicus) (UniProt P35439); test: Percentage inhibition of [3H]glycine to NMDA receptors of rat cortical membranes at 32 uM; format: cell membranes; conditions: Membrane
[2] = biological target: Glutamate receptor ionotropic, AMPA (Rattus norvegicus) (UniProt P19491+P19492+P19493+P19490); test: Percent inhibition of [3H]CP-526427 binding to Ionotropic glutamate receptor AMPA in rat forebrain membranes at 32 uM; format: cell membranes; conditions: Membrane
Rattus norvegicus = species on record: Rattus norvegicus; test: Inhibition of KA-induced increase in [Ca2+]i in rat cerebellar granule neurons; format: functional
Mus musculus [3] = species on record: Mus musculus; test: Anticonvulsant activity against audiogenic seizures in DBA/2 mice measured in clonic phase; format: functional
Mus musculus [4] = species on record: Mus musculus; test: Anticonvulsant activity against audiogenic seizures in DBA/2 mice measured in tonic phase; format: functional
[5] = biological target: T1, Glutamate receptor ionotropic, AMPA (Rattus norvegicus, UniProt P19490+P19491+P19492+P19493); test: Ability to displace [3H]CP-526427 from the Ionotropic glutamate receptor AMPA binding site in rat forebrain membranes; format: cell membranes, Brain, Membrane
[6] = biological target: T1, Glutamate receptor ionotropic, AMPA; test: Ability to displace [3H]CP-526427 from the AMPA receptor binding site in rat forebrain membranes; format: cell membranes, Membrane
[7] = biological target: Glutamate receptor ionotropic, NMDA 1 (Rattus norvegicus, UniProt P35439); test: Inhibition of specific binding of [3H]glycine to NMDA receptors, in rat cortical membranes at 32 uM conc.; format: cell membranes, Membrane

SMILES | inhibition [1] | inhibition [2] | IC50 (Rattus norvegicus) | ED50 (Mus musculus [3]) | ED50 (Mus musculus [4]) | IC50 [5] | IC50 [6] | IC50 [7]
Nc1ccc(-c2nnc(O)c3cc4c(cc23)OCO4)cc1 | 12% | 13% | > 100 µM | – | – | – | – | –
CCCCNC(=O)N1NC(c2ccc(N)cc2)c2cc3c(cc2CC1=O)OCO3 (centres undefined) | 13% | 0% | > 100 µM | 39.2 µmol/kg | 32.7 µmol/kg | – | – | –
Nc1cccc(C2=NNC(=O)Cc3cc4c(cc32)OCO4)c1 | 0% | 31% | > 320 µM | – | – | > 320 µM | – | –
CNC(=O)NC(=O)Cc1cc2c(cc1C(=O)c1ccc(N)cc1)OCO2 | 11% | 3% | – | – | – | – | – | –
CCCCNC(=O)n1nc(-c2ccc(N)cc2)c2cc3c(cc2c1=O)OCO3 | 13% | 0% | > 100 µM | – | – | – | – | –
CNC(=O)N1N=C(c2ccc(N)cc2)c2cc3c(cc2CC1=O)OCO3 | 0% | 59% | 11 µM | – | – | 12 µM | – | –
CC1=NN=C(c2ccc(N)cc2)c2cc3c(cc2C1)OCO3 [GYKI-52466] | 18% | – | 22 µM | – | – | – | 12.6 µM | –
CNC(=O)NC(=O)Cc1cc2c(cc1Cc1ccc(N)cc1)OCO2 | 0% | 0% | – | – | – | – | – | –
CNC(=O)N/N=C(\c1ccc(N)cc1)c1cc2c(cc1CC(=O)OC)OCO2 | 2% | 16% | – | 7.87 µmol/kg | – | – | – | –
NS(=O)(=O)c1cccc2c1c([N+](=O)[O-])cc1nc(O)c(O)nc12 | 3% | – | – | – | – | – | – | –
O=C(O)c1cc(O)c2c(Cl)cc(Cl)cc2n1 | – | – | – | – | – | – | – | 0.09 µM
CNC(=O)N1NC(c2ccc(N)cc2)c2cc3c(cc2CC1=O)OCO3 (centres undefined) | 12% | 0% | > 100 µM | 14.7 µmol/kg | 12.4 µmol/kg | – | – | –
Nc1ccc(C2=NNC(=O)Cc3cc4c(cc32)OCO4)cc1 | 0% | 74% | 13 µM | – | – | 32 µM | – | –
Nc1ccc(C2NNC(=O)Cc3cc4c(cc32)OCO4)cc1 (centres undefined) | 9% | 10% | > 100 µM | – | 6.47 µmol/kg | – | – | –

From ChEMBL document CHEMBL1136551, “Characterization of the mechanism of anticonvulsant activity for a selected set of putative AMPA receptor antagonists” (Bioorg Med Chem Lett, 2003)
